Data taken from PMC10123126, “Insights into translocation mechanism and ribosome evolution from cryo-EM structures of translocation intermediates of Giardia intestinalis” (Nucleic Acids Research, 2023).

Target: T1, eEF2 (Giardia duodenalis, UniProt A8BU59)
T1 construct: gene GL50803_0017570; GDP in G domain (domain I)
Assay: cryo-EM structure
Assay type: binding

T1 sequence (A8BU59 1-898): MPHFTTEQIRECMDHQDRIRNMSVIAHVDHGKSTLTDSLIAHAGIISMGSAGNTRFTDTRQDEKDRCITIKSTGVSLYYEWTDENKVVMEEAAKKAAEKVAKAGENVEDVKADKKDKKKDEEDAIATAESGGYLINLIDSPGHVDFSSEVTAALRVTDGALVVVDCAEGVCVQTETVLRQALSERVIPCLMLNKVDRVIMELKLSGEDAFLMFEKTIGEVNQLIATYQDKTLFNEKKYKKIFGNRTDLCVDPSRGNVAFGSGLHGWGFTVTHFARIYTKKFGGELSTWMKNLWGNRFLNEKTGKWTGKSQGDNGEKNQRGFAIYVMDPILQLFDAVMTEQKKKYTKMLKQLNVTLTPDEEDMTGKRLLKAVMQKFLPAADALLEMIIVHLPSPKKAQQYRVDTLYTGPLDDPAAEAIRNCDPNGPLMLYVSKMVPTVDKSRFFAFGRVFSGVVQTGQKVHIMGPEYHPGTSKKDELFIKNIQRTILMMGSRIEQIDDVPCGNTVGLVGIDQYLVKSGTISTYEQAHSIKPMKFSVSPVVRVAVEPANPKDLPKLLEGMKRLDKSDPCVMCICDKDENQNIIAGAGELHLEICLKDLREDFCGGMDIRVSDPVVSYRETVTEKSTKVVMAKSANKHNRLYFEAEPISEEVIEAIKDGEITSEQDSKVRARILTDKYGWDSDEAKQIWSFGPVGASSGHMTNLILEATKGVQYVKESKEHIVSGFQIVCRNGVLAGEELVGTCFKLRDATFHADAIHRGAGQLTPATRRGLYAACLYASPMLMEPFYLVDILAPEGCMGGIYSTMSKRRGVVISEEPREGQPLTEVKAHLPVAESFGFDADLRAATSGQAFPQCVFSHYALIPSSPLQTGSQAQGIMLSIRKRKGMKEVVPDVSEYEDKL

Compound | cryo-EM structure (ribosome-bound eEF2, state B (chimeric hybrid), G domain, P-loop (G1), G4 and G5 motifs, naturally bound, no inhibitor or analog added) | cryo-EM structure (ribosome-bound eEF2·GDP, state B, leaving phosphate of GTP hydrolysis, held by H143 of switch-II)
Nc1nc2c(ncn2[C@@H]2O[C@H](COP(=O)(O)OP(=O)(O)O)[C@@H](O)[C@H]2O)c(=O)[nH]1 [GDP] | We found a clear density of GDP in the G domain of eEF2 | –
O=P(O)(O)O [Pi] | – | A distinct density of the ‘leaving Pi’ group can be seen
